The source of these data is US20250282799A1, “SUBSTITUTED PYRIDO[4,3-d]PYRIMIDINES AS KRAS MODULATORS” (Alterome Therapeutics, Inc., priority 2023, published 2025).

Structures are written as SMILES. pIC50: −log10 of the molar value.

The assay has as its system KRAS G12V dependent lung adenocarcinoma cell line, NCI-H441. Briefly: Cellular pERK (Thr202/Tyr204) FRET/HTRF assay. It counts as cell-based. Particulars: Homo sapiens, NCI-H441, cellular pERK (Thr202/Tyr204) HTRF, NCI-H441 cells. The method, boiled down:
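NCI-H441, overnight plating → cpd 1 hr, 37 °C/5% CO2; DMSO neg ctrl. Lyse (phosphatase inhibitors), add donor/acceptor Abs, RT incubation, HTRF read. IC50 by curve fit.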
On the technique in general: TR-FRET usually uses a lanthanide donor and a delayed reading to cut background.
The pIC50 is −log10 of the IC50, conventionally taken in molar units. A high value points to a low IC50. In turn, `[2H]C([2H])(Oc1nc(N2CCCC[C@H]3[C@H](F)[C@H]32)c2cnc(-c3cncc4ccc(F)c(OC)c34)c(F)c2n1)[C@@]12CCCN1C[C@H](F)C2` [Example 98, 8-Fluoro-7-(6-fluoro-5-methoxyisoquinolin-4-yl)-4-((1S,7R,8S)-8-fluoro-2-azabicyclo[5.1.0]octan-2-yl)-2-(((2R,7aS)-2-fluorotetrahydro-1H-pyrrolizin-7a(5H)-yl)methoxy-d2)pyrido[4,3-d]pyrimidine] showed a pIC50 greater than 7.30.
As to `[2H]C([2H])(Oc1nc(N2CCC=C[C@@H]3[C@@H](F)[C@@H]32)c2cnc(-c3cc(N)cc4cc(F)c(F)c(C#C)c34)c(F)c2n1)[C@@]12CCCN1C[C@H](F)C2` [Example 99, 5-ethynyl-6,7-difluoro-4-(8-fluoro-4-((1R,7S,8R)-8-fluoro-2-azabicyclo[5.1.0]oct-5-en-2-yl)-2-(((2R,7aS)-2-fluorotetrahydro-1H-pyrrolizin-7a(5H)-yl)methoxy-d2)pyrido[4,3-d]pyrimidin-7-yl)naphthalen-2-amine], the negative-log IC50 (pIC50) is greater than 7.30.
Next, `[2H]C([2H])(F)Oc1c(F)ccc2cc(N)cc(-c3ncc4c(N5CCCC[C@H]6[C@H](F)[C@H]65)nc(OC([2H])([2H])[C@@]56CCCN5C[C@H](F)C6)nc4c3F)c12` [Example 100, 6-Fluoro-4-(8-fluoro-4-((1S,7R,8S)-8-fluoro-2-azabicyclo[5.1.0]octan-2-yl)-2-(((2R,7aS)-2-fluorotetrahydro-1H-pyrrolizin-7a(5H)-yl)methoxy-d2)pyrido[4,3-d]pyrimidin-7-yl)-5-(fluoromethoxy-d2)naphthalen-2-amine]: greater than 7.30; `[2H]C1([2H])OCCN(c2nc(OC([2H])([2H])[C@@]34CCCN3C[C@H](F)C4)nc3c(F)c(-c4cccc5ccc(F)c(C#C)c45)ncc23)[C@@H]2[C@@H](F)[C@@H]21` [Example 101, (1S,7S,8S)-2-(7-(8-ethynyl-7-fluoronaphthalen-1-yl)-8-fluoro-2-(((2R,7aS)-2-fluorotetrahydro-1H-pyrrolizin-7a(5H)-yl)methoxy-d2)pyrido[4,3-d]pyrimidin-4-yl)-8-fluoro-5-oxa-2-azabicyclo[5.1.0]octane-6,6-d2]: greater than 7.30.
Next, `C#Cc1c(F)ccc2cccc(-c3ncc4c(N5CCOC[C@H]6[C@H](F)[C@H]65)nc(OC[C@@]56CCCN5CC(=C(F)F)C6)nc4c3F)c12` [Example 102, (1S,7S,8S)-2-(2-(((S)-2-(Difluoromethylene)tetrahydro-1H-pyrrolizin-7a(5H)-yl)methoxy)-7-(8-ethynyl-7-fluoronaphthalen-1-yl)-8-fluoropyrido[4,3-d]pyrimidin-4-yl)-8-fluoro-5-oxa-2-azabicyclo[5.1.0]octane]: greater than 7.30; `C#Cc1c(F)ccc2cccc(-c3ncc4c(N5CCOC[C@@H]6[C@@H](F)[C@@H]65)nc(OC[C@@]56CCCN5CC(=C(F)F)C6)nc4c3F)c12` [Example 103, (1R,7R,8R)-2-(2-(((S)-2-(difluoromethylene)tetrahydro-1H-pyrrolizin-7a(5H)-yl)methoxy)-7-(8-ethynyl-7-fluoronaphthalen-1-yl)-8-fluoropyrido[4,3-d]pyrimidin-4-yl)-8-fluoro-5-oxa-2-azabicyclo[5.1.0]octane]: 5.00 to 6.30.
The result for `C#Cc1c(F)ccc2cccc(-c3ncc4c(N5CCOC[C@H]6[C@H](F)[C@H]65)nc(OC[C@]56CCCN5CC(=C(F)F)C6)nc4c3F)c12` [Example 104, (1S,7S,8S)-2-(2-(((R)-2-(difluoromethylene)tetrahydro-1H-pyrrolizin-7a(5H)-yl)methoxy)-7-(8-ethynyl-7-fluoronaphthalen-1-yl)-8-fluoropyrido[4,3-d]pyrimidin-4-yl)-8-fluoro-5-oxa-2-azabicyclo[5.1.0]octane] reads greater than 7.30; that for `C#Cc1c(F)c(F)cc2cccc(-c3ncc4c(N5CCOC[C@H]6[C@H](F)[C@H]65)nc(OC[C@@]56CCCN5CC(=C(F)F)C6)nc4c3F)c12` [Example 105, (1S,7S,8S)-2-(2-(((S)-2-(difluoromethylene)tetrahydro-1H-pyrrolizin-7a(5H)-yl)methoxy)-7-(8-ethynyl-6,7-difluoronaphthalen-1-yl)-8-fluoropyrido[4,3-d]pyrimidin-4-yl)-8-fluoro-5-oxa-2-azabicyclo[5.1.0]octane], greater than 7.30.
Regarding `C#Cc1c(F)c(F)cc2cccc(-c3ncc4c(N5CCOC[C@@H]6[C@@H](F)[C@@H]65)nc(OC[C@@]56CCCN5CC(=C(F)F)C6)nc4c3F)c12` [Example 106, (1R,7R,8R)-2-(2-(((S)-2-(difluoromethylene)tetrahydro-1H-pyrrolizin-7a(5H)-yl)methoxy)-7-(8-ethynyl-6,7-difluoronaphthalen-1-yl)-8-fluoropyrido[4,3-d]pyrimidin-4-yl)-8-fluoro-5-oxa-2-azabicyclo[5.1.0]octane], the pIC50 is 5.00 to 6.30.
The result for `C#Cc1c(F)c(F)cc2cccc(-c3ncc4c(N5CCOC[C@H]6[C@H](F)[C@H]65)nc(OC[C@]56CCCN5CC(=C(F)F)C6)nc4c3F)c12` [Example 107, (1S,7S,8S)-2-(2-(((R)-2-(difluoromethylene)tetrahydro-1H-pyrrolizin-7a(5H)-yl)methoxy)-7-(8-ethynyl-6,7-difluoronaphthalen-1-yl)-8-fluoropyrido[4,3-d]pyrimidin-4-yl)-8-fluoro-5-oxa-2-azabicyclo[5.1.0]octane] reads 6.30 to 7.30; that for `[2H]C([2H])(Oc1nc(N2CCOC[C@H]3[C@H](F)[C@H]32)c2cnc(-c3cc(N)cc4c(F)cc(F)c(C#C)c34)c(F)c2n1)[C@@]12CCCN1C[C@H](F)C2` [Example 108, 5-ethynyl-6,8-difluoro-4-(8-fluoro-4-((1S,7S,8S)-8-fluoro-5-oxa-2-azabicyclo[5.1.0]octan-2-yl)-2-(((2R,7aS)-2-fluorotetrahydro-1H-pyrrolizin-7a(5H)-yl)methoxy-d2)pyrido[4,3-d]pyrimidin-7-yl)naphthalen-2-amine], greater than 7.30; that for `[2H]C([2H])([2H])Oc1c(F)c(F)cc2cccc(-c3ncc4c(N5CCCC[C@H]6[C@H](F)[C@H]65)nc(OC([2H])([2H])[C@@]56CCCN5C[C@H](F)C6)nc4c3F)c12` [Example 109, 7-(6,7-difluoro-8-(methoxy-d3)naphthalen-1-yl)-8-fluoro-4-((1S,7R,8S)-8-fluoro-2-azabicyclo[5.1.0]octan-2-yl)-2-(((2R,7aS)-2-fluorotetrahydro-1H-pyrrolizin-7a(5H)-yl)methoxy-d2)pyrido[4,3-d]pyrimidine], 6.30 to 7.30.
Next, `[2H]C([2H])([2H])Oc1c(F)c(F)c(F)c2cccc(-c3ncc4c(N5CCCC[C@H]6[C@H](F)[C@H]65)nc(OC([2H])([2H])[C@@]56CCCN5C[C@H](F)C6)nc4c3F)c12` [Example 110, 8-fluoro-4-((1S,7R,8S)-8-fluoro-2-azabicyclo[5.1.0]octan-2-yl)-2-(((2R,7aS)-2-fluorotetrahydro-1H-pyrrolizin-7a(5H)-yl)methoxy-d2)-7-(5,6,7-trifluoro-8-(methoxy-d3)naphthalen-1-yl)pyrido[4,3-d]pyrimidine]: 5.00 to 6.30.
